Data reported in patent publication US10238670B2, “9-aminomethyl minocycline compounds and methods of use thereof in urinary tract infection (UTI) treatment” (Paratek Pharmaceuticals, Inc., priority 2016, dated 2019).
In brackets after ≈: the same amount, converted by molar mass.

Assays:
Assay in all cases: In vitro MIC, 2010 surveillance isolates
A. baumanii = assay type: cell-based
MS CoNS = assay type: cell-based, Coagulase-Negative Staphylococcus; settings: for % R (resistance): Eucast breakpoints
MSSA = assay type: cell-based
K. pneumoniae ESBL− = assay type: cell-based, Klebsiella pneumoniae
K. pneumoniae ESBL+ = assay type: cell-based, Klebsiella pneumoniae
E. cloacae CeftazS = assay type: cell-based
E. coli ESBL+ = assay type: cell-based, Escherichia coli
E. faecium VNS = assay type: cell-based
Acinetobacter spp = assay type: cell-based; settings: for range of MICs (N <10, shown instead of MIC90): N=9
E. cloacae CeftazR = assay type: cell-based
E. faecalis VS = assay type: cell-based
MR CoNS = assay type: cell-based, Coagulase-Negative Staphylococcus; settings: for % R (resistance): Eucast breakpoints
MRSA = assay type: cell-based
Enterobacter spp = assay type: cell-based
E. coli ESBL− = assay type: cell-based, Escherichia coli
E. faecium VS = assay type: cell-based
K. oxytoca = assay type: cell-based

CN(C)c1cc(NC(=O)CNC(C)(C)C)c(O)c2c1C[C@H]1C[C@H]3[C@H](N(C)C)C(O)=C(C(N)=O)C(=O)[C@@]3(O)C(O)=C1C2=O [Tigecycline] was tested, and the MIC90 (A. baumanii; Asia/Pac, N=275) was 1 µg/mL (≈ 1.71 µM), the MIC90 (A. baumanii; Europe, N=145) was 2 µg/mL (≈ 3.41 µM) and the MIC90 (A. baumanii; L. Amer, N=275) was 2 µg/mL (≈ 3.41 µM). The MIC90 (A. baumanii; N America, N=154) was 2 µg/mL (≈ 3.41 µM), the “% R (resistance)” value (MS CoNS; Asia/Pac) was 0% and the MIC90 (MS CoNS; Asia/Pac, N=18) was 0.25 µg/mL (≈ 0.427 µM). The “% R (resistance)” value (MS CoNS; Europe) was 0%, the MIC90 (MS CoNS; Europe, N=185) was 0.25 µg/mL (≈ 0.427 µM) and the MIC90 (MS CoNS; L. Amer, N=67) was 0.25 µg/mL (≈ 0.427 µM). The MIC90 (MS CoNS; N America, N=191) was 0.25 µg/mL (≈ 0.427 µM), the “% R (resistance)” value (MSSA; Asia/Pac, Eucast breakpoints) was 0% and the MIC90 (MSSA; Asia/Pac, N=641) was 0.25 µg/mL (≈ 0.427 µM). The “% R (resistance)” value (MSSA; Europe, Eucast breakpoints) was 0%, the MIC90 (MSSA; Europe, N=2109) was 0.25 µg/mL (≈ 0.427 µM) and the “% R (resistance)” value (MSSA; L. Amer, CLSI breakpoints) was 0%. The MIC90 (MSSA; L. Amer, N=590) was 0.25 µg/mL (≈ 0.427 µM), the “% R (resistance)” value (MSSA; N America, CLSI breakpoints) was 0% and the MIC90 (MSSA; N America, N=2373) was 0.25 µg/mL (≈ 0.427 µM). For the same molecule, the “% R (resistance)” value (K. pneumoniae ESBL−; Asia/Pac, Eucast breakpoints) was 1.1%, the MIC90 (K. pneumoniae ESBL−; Asia/Pac, N=189) was 0.5 µg/mL (≈ 0.854 µM) and the “% R (resistance)” value (K. pneumoniae ESBL−; Europe, Eucast breakpoints) was 0.3%. The MIC90 (K. pneumoniae ESBL−; Europe, N=361) was 0.5 µg/mL (≈ 0.854 µM), the “% R (resistance)” value (K. pneumoniae ESBL−; L. Amer, CLSI breakpoints) was 0% and the MIC90 (K. pneumoniae ESBL−; L. Amer, N=160) was 0.5 µg/mL (≈ 0.854 µM). The “% R (resistance)” value (K. pneumoniae ESBL−; N America, CLSI breakpoints) was 0%, the MIC90 (K. pneumoniae ESBL−; N America, N=671) was 0.5 µg/mL (≈ 0.854 µM) and the “% R (resistance)” value (K. pneumoniae ESBL+; Asia/Pac, Eucast breakpoints) was 3.2%. The MIC90 (K. pneumoniae ESBL+; Asia/Pac, N=124) was 1 µg/mL (≈ 1.71 µM), the “% R (resistance)” value (K. pneumoniae ESBL+; Europe, Eucast breakpoints) was 0.7% and the MIC90 (K. pneumoniae ESBL+; Europe, N=151) was 1 µg/mL (≈ 1.71 µM). For the same molecule, the “% R (resistance)” value (K. pneumoniae ESBL+; L. Amer, CLSI breakpoints) was 0%, the MIC90 (K. pneumoniae ESBL+; L. Amer, N=209) was 2 µg/mL (≈ 3.41 µM) and the “% R (resistance)” value (K. pneumoniae ESBL+; N America, CLSI breakpoints) was 0%. The MIC90 (K. pneumoniae ESBL+; N America, N=108) was 2 µg/mL (≈ 3.41 µM), the “% R (resistance)” value (E. cloacae CeftazS; Asia/Pac, Eucast breakpoints) was 2% and the MIC90 (E. cloacae CeftazS; Asia/Pac, N=100) was 0.5 µg/mL (≈ 0.854 µM). For the same molecule, the “% R (resistance)” value (E. cloacae CeftazS; Europe, Eucast breakpoints) was 0%, the MIC90 (E. cloacae CeftazS; Europe, N=183) was 0.5 µg/mL (≈ 0.854 µM) and the “% R (resistance)” value (E. cloacae CeftazS; L. Amer, CLSI breakpoints) was 0%. The MIC90 (E. cloacae CeftazS; L. Amer, N=57) was 1 µg/mL (≈ 1.71 µM), the “% R (resistance)” value (E. cloacae CeftazS; N America, CLSI breakpoints) was 0% and the MIC90 (E. cloacae CeftazS; N America, N=210) was 0.5 µg/mL (≈ 0.854 µM). For the same molecule, the “% R (resistance)” value (E. coli ESBL+; Asia/Pac, Eucast breakpoints) was 0%, the MIC90 (E. coli ESBL+; Asia/Pac, N=219) was 0.25 µg/mL (≈ 0.427 µM) and the “% R (resistance)” value (E. coli ESBL+; Europe, Eucast breakpoints) was 0%. The MIC90 (E. coli ESBL+; Europe, N=274) was 0.5 µg/mL (≈ 0.854 µM), the “% R (resistance)” value (E. coli ESBL+; L. Amer, CLSI breakpoints) was 0% and the MIC90 (E. coli ESBL+; L. Amer, N=168) was 0.25 µg/mL (≈ 0.427 µM). For the same molecule, the “% R (resistance)” value (E. coli ESBL+; N America, CLSI breakpoints) was 0%, the MIC90 (E. coli ESBL+; N America, N=134) was 0.25 µg/mL (≈ 0.427 µM) and the “% R (resistance)” value (E. faecium VNS; Asia/Pac, Eucast breakpoints) was 0%. The MIC90 (E. faecium VNS; Asia/Pac, N=24) was 0.25 µg/mL (≈ 0.427 µM), the “% R (resistance)” value (E. faecium VNS; Europe, Eucast breakpoints) was 0% and the MIC90 (E. faecium VNS; Europe, N=71) was 0.25 µg/mL (≈ 0.427 µM). The “% R (resistance)” value (E. faecium VNS; L. Amer, CLSI breakpoints) was 0%, the MIC90 (E. faecium VNS; L. Amer, N=41) was 0.12 µg/mL (≈ 0.205 µM) and the “% R (resistance)” value (E. faecium VNS; N America, CLSI breakpoints) was 0%. The MIC90 (E. faecium VNS; N America, N=478) was 0.25 µg/mL (≈ 0.427 µM), the “range of MICs (N <10, shown instead of MIC90)” value (Acinetobacter spp; Asia/Pac) was ≤0.03-1 and the MIC90 (Acinetobacter spp; Europe, N=43) was 2 µg/mL (≈ 3.41 µM). For the same molecule, the “range of MICs (N <10, shown instead of MIC90)” value (Acinetobacter spp; L. Amer) was ≤0.03-2, the MIC90 (Acinetobacter spp; N America, N=42) was 0.5 µg/mL (≈ 0.854 µM) and the “% R (resistance)” value (E. cloacae CeftazR; Asia/Pac, Eucast breakpoints) was 1.6%. The MIC90 (E. cloacae CeftazR; Asia/Pac, N=63) was 0.5 µg/mL (≈ 0.854 µM), the “% R (resistance)” value (E. cloacae CeftazR; Europe, Eucast breakpoints) was 0% and the MIC90 (E. cloacae CeftazR; Europe, N=72) was 0.5 µg/mL (≈ 0.854 µM). For the same molecule, the “% R (resistance)” value (E. cloacae CeftazR; L. Amer, CLSI breakpoints) was 0%, the MIC90 (E. cloacae CeftazR; L. Amer, N=42) was 1 µg/mL (≈ 1.71 µM) and the “% R (resistance)” value (E. cloacae CeftazR; N America, CLSI breakpoints) was 0%. The MIC90 (E. cloacae CeftazR; N America, N=77) was 2 µg/mL (≈ 3.41 µM), the “% R (resistance)” value (E. faecalis VS; Asia/Pac, Eucast breakpoints) was 0% and the MIC90 (E. faecalis VS; Asia/Pac, N=214) was 0.25 µg/mL (≈ 0.427 µM). For the same molecule, the “% R (resistance)” value (E. faecalis VS; Europe, Eucast breakpoints) was 0%, the MIC90 (E. faecalis VS; Europe, N=669) was 0.25 µg/mL (≈ 0.427 µM) and the “% R (resistance)” value (E. faecalis VS; L. Amer, CLSI breakpoints) was 0%. For the same molecule, the MIC90 (E. faecalis VS; L. Amer, N=290) was 0.25 µg/mL (≈ 0.427 µM), the “% R (resistance)” value (E. faecalis VS; N America, CLSI breakpoints) was 0% and the MIC90 (E. faecalis VS; N America, N=863) was 0.25 µg/mL (≈ 0.427 µM). For the same molecule, the “% R (resistance)” value (MR CoNS; Asia/Pac) was 0%, the MIC90 (MR CoNS; Asia/Pac, N=77) was 0.25 µg/mL (≈ 0.427 µM) and the “% R (resistance)” value (MR CoNS; Europe) was 0%. The MIC90 (MR CoNS; Europe, N=510) was 0.25 µg/mL (≈ 0.427 µM), the MIC90 (MR CoNS; L. Amer, N=301) was 0.25 µg/mL (≈ 0.427 µM) and the MIC90 (MR CoNS; N America, N=461) was 0.25 µg/mL (≈ 0.427 µM). For the same molecule, the “% R (resistance)” value (MRSA; Asia/Pac, Eucast breakpoints) was 0%, the MIC90 (MRSA; Asia/Pac, N=428) was 0.25 µg/mL (≈ 0.427 µM) and the “% R (resistance)” value (MRSA; Europe, Eucast breakpoints) was 0%. The MIC90 (MRSA; Europe, N=750) was 0.25 µg/mL (≈ 0.427 µM), the “% R (resistance)” value (MRSA; L. Amer, CLSI breakpoints) was 0% and the MIC90 (MRSA; L. Amer, N=506) was 0.25 µg/mL (≈ 0.427 µM). For the same molecule, the “% R (resistance)” value (MRSA; N America, CLSI breakpoints) was 0%, the MIC90 (MRSA; N America, N=2508) was 0.25 µg/mL (≈ 0.427 µM) and the “% R (resistance)” value (Enterobacter spp; Asia/Pac, Eucast breakpoints) was 3.8%. For the same molecule, the MIC90 (Enterobacter spp; Asia/Pac, N=52) was 1 µg/mL (≈ 1.71 µM), the “% R (resistance)” value (Enterobacter spp; Europe, Eucast breakpoints) was 1.2% and the MIC90 (Enterobacter spp; Europe, N=82) was 1 µg/mL (≈ 1.71 µM). The “% R (resistance)” value (Enterobacter spp; L. Amer, CLSI breakpoints) was 0%, the MIC90 (Enterobacter spp; L. Amer, N=42) was 0.5 µg/mL (≈ 0.854 µM) and the “% R (resistance)” value (Enterobacter spp; N America, CLSI breakpoints) was 0%. The MIC90 (Enterobacter spp; N America, N=101) was 0.5 µg/mL (≈ 0.854 µM), the “% R (resistance)” value (E. coli ESBL−; Asia/Pac, Eucast breakpoints) was 0% and the MIC90 (E. coli ESBL−; Asia/Pac, N=282) was 0.25 µg/mL (≈ 0.427 µM). The “% R (resistance)” value (E. coli ESBL−; Europe, Eucast breakpoints) was 0%, the MIC90 (E. coli ESBL−; Europe, N=1533) was 0.25 µg/mL (≈ 0.427 µM) and the “% R (resistance)” value (E. coli ESBL−; L. Amer, CLSI breakpoints) was 0%. For the same molecule, the MIC90 (E. coli ESBL−; L. Amer, N=389) was 0.25 µg/mL (≈ 0.427 µM), the “% R (resistance)” value (E. coli ESBL−; N America, CLSI breakpoints) was 0% and the MIC90 (E. coli ESBL−; N America, N=1172) was 0.25 µg/mL (≈ 0.427 µM). The “% R (resistance)” value (E. faecium VS; Asia/Pac, Eucast breakpoints) was 0%, the MIC90 (E. faecium VS; Asia/Pac, N=106) was 0.12 µg/mL (≈ 0.205 µM) and the “% R (resistance)” value (E. faecium VS; Europe, Eucast breakpoints) was 0%. For the same molecule, the MIC90 (E. faecium VS; Europe, N=303) was 0.12 µg/mL (≈ 0.205 µM), the “% R (resistance)” value (E. faecium VS; L. Amer, CLSI breakpoints) was 0% and the MIC90 (E. faecium VS; L. Amer, N=51) was 0.12 µg/mL (≈ 0.205 µM). For the same molecule, the “% R (resistance)” value (E. faecium VS; N America, CLSI breakpoints) was 0%, the MIC90 (E. faecium VS; N America, N=115) was 0.25 µg/mL (≈ 0.427 µM) and the “% R (resistance)” value (K. oxytoca; Asia/Pac, Eucast breakpoints) was 5.9%. The MIC90 (K. oxytoca; Asia/Pac, N=17) was 0.5 µg/mL (≈ 0.854 µM), the “% R (resistance)” value (K. oxytoca; Europe, Eucast breakpoints) was 0% and the MIC90 (K. oxytoca; Europe, N=158) was 0.5 µg/mL (≈ 0.854 µM). The “% R (resistance)” value (K. oxytoca; L. Amer, CLSI breakpoints) was 0%, the MIC90 (K. oxytoca; L. Amer, N=25) was 1 µg/mL (≈ 1.71 µM) and the “% R (resistance)” value (K. oxytoca; N America, CLSI breakpoints) was 0%. For the same molecule, the MIC90 (K. oxytoca; N America, N=177) was 0.5 µg/mL (≈ 0.854 µM).
